Literature values as cited in patent US12274789B2, “Oral compositions comprising methylprednisolone sodium succinate” (LABOMED PHARMACEUTICAL COMPANY S.A., priority 2018, dated 2025).

Conditions: versus prednisolone

C[C@H]1C[C@@H]2[C@H]([C@@H](O)C[C@@]3(C)[C@H]2CC[C@]3(O)C(=O)COC(=O)CCC(=O)[O-])[C@@]2(C)C=CC(=O)C=C12.[Na+] [methylprednisolone sodium succinate, pregna-1,4-diene-3,20dione,21-(3-carboxy-1-oxopropoxy)-11,17-dihydroxy-6-methyl-monosodium salt, (6α, 11β)]
anti-inflammatory potency, ratio to prednisolone: 5 to 4
